The text below walks through data of article PMC6017704 (Molecules : A Journal of Synthetic Chemistry and Natural …, 2018).

One may read the viability as a read-out of living cells in per cent, often relative to untreated cells. The term IC50 denotes the concentration needed to halve the response being measured.

Test [1] concerns human umbilical vein endothelial cells (PUMC-HUVEC-T1). Kind of test: HUVEC cell anti-proliferation assay (MTT). It counts as cell-based. As to conditions: for viability at 1 µM / viability at 10 µM / IC50: Homo sapiens, 72 h, MTT; for viability at 1 µM / viability at 10 µM: read-out: Relative Cell Viability (%) ± SD (n = 3); for viability at 10 µM / inhibition ratio in HUVEC: 10 µM; for IC50: n = 3, read-out: IC50, HUVEC relative cell viability. From the text:
A major mediator of VEGF-driven responses in endothelial cells is VEGFR-2, which is considered to play a decisive role in both physiologic and pathologic angiogenesis. The homogeneous time-resolved fluorescence (HTRF) method was used in the assay that determined the inhibitory activities of target compounds against VEGFR-2 kinase. Owing to VEGFR-2 overexpression in human umbilical vein endothelial cells (HUVEC), these target compounds were further evaluated in vitro anti-proliferation activity against HUVEC. MTT assay was used in the cell assay. […] In order to ensure the repeatability of the activity test, we choose to complete biological evaluation under the dark condition.
SV40T transforms human umbilical vein endothelial cells (PUMC-HUVEC-T1) were gifts from Dr. Lihua Ding (Institute of Biotechnology, Beijing, China). MTT Cell Proliferation and Cytotoxicity Assay Kit (#GK-5605, Genview) was used to measure cell viability and proliferation. Metabolically active cells in part by the action of dehydrogenase enzymes reduced the yellow tetrazolium MTT to generate purple reducing equivalents such as NADH and NADPH. The resulting intracellular purple formazan can be solubilized and quantified by spectrophotometer.
For MTT assay, cells were seeded into separate 96-well plates at 5000 cells/well and cultured in an incubator containing 5% CO2 at 37 °C for 24 h. Subsequently, target compounds were dissolved into different concentrations with culture medium from 10 mM stock solutions in DMSO, respectively. Then target compounds were added and incubated at 37 °C for 72 h. All assays were performed in triplicate. The untreated groups were used as a vehicle of control. Following the 72-h incubation, discarded culture medium and washed with PBS once time followed by adding 180 µL of fresh culture medium. Cell viability was quantified with MTT assay. According to the manufacturer instructions, 20 µL of MTT solution that was previously thawed and equilibrated to room temperature was added to each well and plates were incubated at 37 °C for 4 h. Termination of culture, the supernatant was carefully discarded and added 150 µL of Formazan dissolution for 10 min vibration at room temperature. The OD value of each well was measured by a spectrophotometer at 490 nm and the inhibitory rates expressed as percentages of the vehicle control (100%). Data processing: ratio = Vsample/Vcontrol × 100%. Vsample is for compound treatment group while Vcontrol is for solvent control group. The GraphPad Prism 5.0 software was used to draw nonlinear regression model and calculated IC50 values.

For a further test, the target named is T1, VEGFR-2 (KDR) kinase (Homo sapiens, UniProt P35968).
T1 construct: purchased Carna Biosciences
T1 sequence (P35968 20-1356): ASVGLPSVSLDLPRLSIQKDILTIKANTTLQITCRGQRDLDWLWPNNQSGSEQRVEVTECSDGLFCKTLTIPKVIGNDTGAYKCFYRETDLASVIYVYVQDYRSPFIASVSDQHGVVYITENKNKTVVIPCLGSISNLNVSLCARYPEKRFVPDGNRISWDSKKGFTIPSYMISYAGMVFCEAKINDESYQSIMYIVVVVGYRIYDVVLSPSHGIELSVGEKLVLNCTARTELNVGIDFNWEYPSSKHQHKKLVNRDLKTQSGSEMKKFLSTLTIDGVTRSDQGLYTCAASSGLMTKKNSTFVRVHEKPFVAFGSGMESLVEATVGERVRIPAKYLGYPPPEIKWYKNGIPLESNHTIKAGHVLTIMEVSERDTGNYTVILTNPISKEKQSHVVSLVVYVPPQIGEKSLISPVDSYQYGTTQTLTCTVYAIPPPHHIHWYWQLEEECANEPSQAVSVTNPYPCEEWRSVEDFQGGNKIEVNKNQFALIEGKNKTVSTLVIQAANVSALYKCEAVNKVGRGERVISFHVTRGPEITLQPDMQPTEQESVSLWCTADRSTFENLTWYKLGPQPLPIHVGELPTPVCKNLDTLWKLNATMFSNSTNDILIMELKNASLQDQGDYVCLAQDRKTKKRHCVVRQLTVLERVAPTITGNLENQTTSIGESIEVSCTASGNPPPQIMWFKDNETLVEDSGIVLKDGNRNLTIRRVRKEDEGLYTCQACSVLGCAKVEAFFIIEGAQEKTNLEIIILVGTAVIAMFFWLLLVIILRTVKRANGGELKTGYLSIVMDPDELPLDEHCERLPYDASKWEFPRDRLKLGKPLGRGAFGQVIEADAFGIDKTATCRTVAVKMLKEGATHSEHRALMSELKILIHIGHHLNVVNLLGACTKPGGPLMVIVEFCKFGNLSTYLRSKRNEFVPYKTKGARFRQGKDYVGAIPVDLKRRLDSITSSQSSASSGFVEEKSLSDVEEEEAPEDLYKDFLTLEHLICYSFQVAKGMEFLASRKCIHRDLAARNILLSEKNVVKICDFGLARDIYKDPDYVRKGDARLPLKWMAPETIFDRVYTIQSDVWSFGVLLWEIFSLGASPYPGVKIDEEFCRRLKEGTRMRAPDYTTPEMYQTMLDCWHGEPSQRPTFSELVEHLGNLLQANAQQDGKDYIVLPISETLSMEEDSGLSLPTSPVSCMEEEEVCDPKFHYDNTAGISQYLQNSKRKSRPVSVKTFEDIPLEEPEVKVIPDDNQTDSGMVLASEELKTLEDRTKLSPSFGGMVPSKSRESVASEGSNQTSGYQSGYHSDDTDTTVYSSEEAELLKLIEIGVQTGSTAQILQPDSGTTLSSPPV
The test can be described thus: VEGFR-2 kinase assay (HTRF KinEASE-TK). Format: biochemical. As to conditions: for IC50: HTRF, ATP 3 µM, 40 min, dark condition, n = 3. A general note: In TR-FRET formats the signal depends on donor and acceptor labels being close together.

Each structure is given as a SMILES string.

As for `CNC(=O)c1ccccc1Sc1ccc2c(/C=C/c3ccccn3)n[nH]c2c1` [Axitinib, reference compound], in test [1], the viability at 1 µM came to 80 ± 6.64% and the viability at 10 µM turned out to be 53.2 ± 9.11%.
For the compound `CNC(=O)c1ccccc1Sc1ccc2c(N=Nc3c(OC)cc(N)cc3OC)n[nH]c2c1` [TM2, 2-(3-((4-amino-2,6-dimethoxyphenyl)diazenyl)-1H-indazol-6-ylthio)-N-methylbenzamide], in test [1], the “inhibition ratio in HUVEC” value was at most 20%, the viability at 1 µM was 107 ± 1.29% and the viability at 10 µM was found to be 94.4 ± 5.01%.
Take `CNC(=O)c1ccccc1Sc1ccc2c(N=Nc3ccc(N)cc3OC)n[nH]c2c1` [TM3, 2-(3-((4-amino-2-methoxyphenyl)diazenyl)-1H-indazol-6-ylthio)-N-methylbenzamide]: in test [1], the “inhibition ratio in HUVEC” value is listed as at most 20%, the viability at 1 µM was 125 ± 8.92% and the viability at 10 µM is 84.1 ± 6.83%. This compound returned an IC50 at VEGFR-2 (KDR) kinase of 195 ± 1.11 nM. Further, the “increase of VEGFR-2 activity compared with TM2” value on VEGFR-2 (KDR) kinase (relative to TM2) is reported as “more than ten times”.
As to `CNC(=O)c1ccccc1Sc1ccc2c(N=Nc3ccc(N(C)C)cc3)n[nH]c2c1` [TM4, 2-(3-((4-(dimethylamino)phenyl)diazenyl)-1H-indazol-6-ylthio)-N-methylbenzamide], in test [1], the “inhibition ratio in HUVEC” value is on record as at most 20%, the viability at 1 µM was 94.1 ± 1.89% and the viability at 10 µM was 82.8 ± 5.32%. This compound registered an IC50 against VEGFR-2 (KDR) kinase of 135 ± 1.25 nM.
With `CNC(=O)c1ccccc1Sc1ccc2c(N=Nc3cccn3C)n[nH]c2c1` [TM6, N-methyl-2-(3-((1-methyl-1H-pyrrol-2-yl)diazenyl)-1H-indazol-6-ylthio)benzamide], in test [1], the “inhibition ratio in HUVEC” value was “exceeding 60%”, the viability at 1 µM was 97 ± 10.4%, the viability at 10 µM was 19.3 ± 3.82% and the IC50 was 5030 nM. On VEGFR-2 (KDR) kinase, this compound displayed an IC50 of 2290 ± 1.17 nM.
For `CNC(=O)c1ccccc1Sc1ccc2c(N=Nc3ccc[nH]3)n[nH]c2c1` [TM7, 2-(3-((1H-pyrrol-2-yl)diazenyl)-1H-indazol-6-ylthio)-N-methylbenzamide], in that order: “exceeding 60%”, 84.4 ± 4.35%, 39.1 ± 2.49%, 5730 nM and 123 ± 1.08 nM.
For the compound `CNC(=O)c1ccccc1Sc1ccc2c(N=Nc3cc(C)n(C)c3C)n[nH]c2c1` [TM8, N-methyl-2-(3-((1,2,5-trimethyl-1H-pyrrol-3-yl)diazenyl)-1H-indazol-6-ylthio)benzamide], in test [1], the viability at 1 µM stood at 92.3 ± 9.05% and the viability at 10 µM worked out at 61.3 ± 10.9%. The IC50 at VEGFR-2 (KDR) kinase stood at 158 ± 1.14 nM.
`CNC(=O)c1ccccc1Sc1ccc2c(N=Nc3[nH]c(C)cc3C)n[nH]c2c1` [TM9, 2-(3-((3,5-dimethyl-1H-pyrrol-2-yl)diazenyl)-1H-indazol-6-ylthio)-N-methylbenzamide]: in test [1], the viability at 1 µM amounted to 68.54 ± 0.29%, the viability at 10 µM was determined as 32.2 ± 1.99% and the IC50 was found to be 2180 nM. Also, 201 ± 1.26 nM corresponded to half-maximal inhibition against VEGFR-2 (KDR) kinase (IC50).
On to `CNC(=O)c1ccccc1Sc1ccc2c(N=Nc3cc(C)[nH]c3C)n[nH]c2c1` [TM10, 2-(3-((2,5-dimethyl-1H-pyrrol-3-yl)diazenyl)-1H-indazol-6-ylthio)-N-methylbenzamide], for which, in test [1], the viability at 1 µM turned out to be 99.29 ± 0.78% and the viability at 10 µM amounted to 66.2 ± 4.43%. 44 ± 1.15 nM corresponded to half-maximal inhibition at VEGFR-2 (KDR) kinase (IC50).
`CNC(=O)c1ccccc1Sc1ccc2c(N=Nc3ccc(C)[nH]3)n[nH]c2c1` [TM11, N-methyl-2-(3-((5-methyl-1H-pyrrol-2-yl)diazenyl)-1H-indazol-6-ylthio)benzamide]: in test [1], the “inhibition ratio in HUVEC” value was “exceeding 60%”, the viability at 1 µM came out at 67.03 ± 0.19%, the viability at 10 µM turned out to be 31 ± 0.61% and the IC50 came to 2150 nM. Inhibition on VEGFR-2 (KDR) kinase was half-maximal at 330 ± 1.14 nM (IC50).
